For the assay, the target named is DNA-PK (Homo sapiens, UniProt P78527). Nature of the assay: DNA-PK Inhibition Assay (standard radiometric kinase assay, 33P-ATP, peptide substrate). Type of assay: biochemical. Conditions: radiometric assay, approximately 6 nM DNA-PK, 100 μM ATP, 45 min; fit to competitive tight-binding inhibition; read-out: Ki for the inhibition of DNA-PK. The method in brief: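 Radiometric transfer of 33P from ATP (100 μM) to peptide substrate (0.8 mg/mL) by about 6 nM DNA-PK with 10 μg/mL sheared dsDNA, pH 7.5 HEPES/MgCl2, 45 min, phosphoric acid quench, filter capture and scintillation counting. Ki fitted to a competitive tight-binding inhibition model.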

From patent publication US12251387B2, “Substituted quinoxalines and benzo[c][1,2,5]oxadiazoles as DNA-PK inhibitors” (Vertex Pharmaceuticals Incorporated, priority 2013, dated 2025) come the findings set out here.

The structures appear in SMILES notation.

For orientation: Ki means the dissociation constant of the complex between target and ligand, obtained from inhibition or displacement. Regarding `c1cnc2c(O[C@H]3CC[C@@H](Nc4ncc(CCN5CCCC5)cn4)CC3)cc(N3CCOCC3)cc2n1` [Compound 432], the Ki was less than 100 nM.

On to `COCc1cc(N[C@H]2CC[C@@H](Oc3cc(N4CC5CC(C4)O5)cc4nccnc34)CC2)nc(C)n1` [Compound 309], for which the inhibitory constant (Ki) was less than 100 nM.

Consider `Cc1cn(C)c(N[C@H]2CC[C@@H](Oc3cc(N4CCOCC4)cc4nccnc34)CC2)n1` [Compound 646], for which the inhibitory constant (Ki) is less than 100 nM.

As for `COc1nc(N[C@H]2CC[C@@H](Oc3cc(N4CCOCC4)cc4nccnc34)CC2)nc(OC)n1` [Compound 608], the inhibitory constant (Ki) is less than 100 nM.

`CNC(=O)c1ccc(N[C@H]2CC[C@@H](Oc3cc(N4CCOCC4)cc4nccnc34)CC2)cn1` [Compound 358]: the Ki is less than 100 nM.

`O=C(O)c1cc(N[C@H]2CC[C@@H](Oc3cc(N4CCOCC4)cc4nccnc34)CC2)ccc1F` [Compound 420]: the inhibitory constant (Ki) is less than 100 nM.

Regarding `CN1CCC(c2ccnc(N[C@H]3CC[C@@H](Oc4cc(N5CCOCC5)cc5nccnc45)CC3)n2)CC1` [Compound 549], the Ki was less than 100 nM.

Consider `Cc1ncccc1N[C@H]1CC[C@@H](Oc2cc(N3CCOCC3)cc3nccnc23)CC1` [Compound 442], for which the Ki is less than 100 nM.

With `Cn1ccc(N[C@H]2CC[C@@H](Oc3cc(N4CCOCC4)cc4nccnc34)CC2)cc1=O` [Compound 311], the Ki is less than 100 nM.

For the molecule `c1cc(-c2nnco2)nc(N[C@H]2CC[C@@H](Oc3cc(N4CCOCC4)cc4nccnc34)CC2)n1` [Compound 461], the Ki was less than 100 nM.

In the case of `c1cnc2c(O[C@H]3CC[C@@H](Nc4ncc(OCCN5CCCCC5)cn4)CC3)cc(N3CCOCC3)cc2n1` [Compound 613], the Ki was less than 100 nM.

For `Cc1ncn2ccnc(N[C@H]3CC[C@@H](Oc4cc(N5CCOCC5)cc5nccnc45)CC3)c12` [Compound 313], the Ki is less than 100 nM.

As to `COCCOc1cnc(N[C@H]2CC[C@@H](Oc3cc(N4CCOCC4)cc4nccnc34)CC2)nc1` [Compound 612], the Ki is less than 100 nM.

Turning to `Cc1cc(N[C@H]2CC[C@@H](Oc3cc(N4CCOCC4)cc4nccnc34)CC2)cc(C)n1` [Compound 286], the inhibitory constant (Ki) is less than 100 nM.

As to `N#CCCN1CCC(c2cnc(N[C@H]3CC[C@@H](Oc4cc(N5CCOCC5)cc5nccnc45)CC3)nc2)CC1` [Compound 519], the inhibitory constant (Ki) was less than 100 nM.

Consider `CN1CCC(Nc2ncnc(N[C@H]3CC[C@@H](Oc4cc(N5CCOCC5)cc5nccnc45)CC3)c2F)C1` (stereo partly shown) [Compound 381], for which the Ki was less than 100 nM.

With `CCc1ccnc(N[C@H]2CC[C@@H](Oc3cc(N4CCOCC4)cc4nccnc34)CC2)n1` [Compound 633], the Ki was less than 100 nM.

Turning to `c1cc(N2CCOCC2)nc(N[C@H]2CC[C@@H](Oc3cc(N4CCOCC4)cc4nccnc34)CC2)n1` [Compound 548], the inhibitory constant (Ki) was less than 100 nM.

On to `Clc1cncnc1N[C@H]1CC[C@@H](Oc2cc(N3CCOCC3)cc3nccnc23)CC1` [Compound 409], for which the inhibitory constant (Ki) is less than 100 nM.

In the case of `COC(=O)c1cc(N[C@H]2CC[C@@H](Oc3cc(N4CCOCC4)cc4nccnc34)CC2)ncc1O` [Compound 404], the Ki was less than 100 nM.

In the case of `O=C(N[C@H]1CC[C@@H](Oc2cc(N3CCOCC3)cc3nccnc23)CC1)N1CCOCC1` [Compound 412], the inhibition constant Ki is less than 100 nM.

`c1cc(N[C@H]2CC[C@@H](Oc3cc(N4CCOCC4)cc4nccnc34)CC2)c2c(c1)OCO2` [Compound 339]: the Ki is less than 100 nM.

`CC(C)NC(=O)c1cc(N[C@H]2CC[C@@H](Oc3cc(N4CCOCC4)cc4nccnc34)CC2)ncn1` [Compound 643]: the inhibitory constant (Ki) is less than 100 nM.

`Cc1ccncc1N[C@H]1CC[C@@H](Oc2cc(N3CCOCC3)cc3nccnc23)CC1` [Compound 443]: the Ki is less than 100 nM.

On to `CCN1CCC(c2cnc(N[C@H]3CC[C@@H](Oc4cc(N5CCOCC5)cc5nccnc45)CC3)nc2)CC1` [Compound 523], for which the inhibitory constant (Ki) is less than 100 nM.

Turning to `c1cnc2c(O[C@H]3CC[C@@H](Nc4ncnc5[nH]cnc45)CC3)cc(N3CCOCC3)cc2n1` [Compound 516], the inhibition constant Ki is less than 100 nM.

For `Cn1ccc(N[C@H]2CC[C@@H](Oc3cc(N4CCOCC4)cc4nccnc34)CC2)n1` [Compound 649], the Ki is less than 100 nM.

Consider `Cc1nc(C)c(F)c(N[C@H]2CC[C@@H](Oc3cc(N4CCOCC4)cc4nccnc34)CC2)n1` [Compound 463], for which the inhibitory constant (Ki) was less than 100 nM.

As to `Cn1cnc2c(N[C@H]3CC[C@@H](Oc4cc(N5CCOCC5)cc5nccnc45)CC3)ncnc21` [Compound 546], the Ki is less than 100 nM.

Consider `CC(C)(O)c1ccc(N[C@H]2CC[C@@H](Oc3cc(N4CCOCC4)cc4nccnc34)CC2)nc1` [Compound 281], for which the Ki was less than 100 nM.

`CNC(=O)c1cnc(N[C@H]2CC[C@@H](Oc3cc(N4CCOCC4)cc4nccnc34)CC2)nc1C` [Compound 287]: the Ki was less than 100 nM.

Take `CN1CCN(CCOc2cc(N[C@H]3CC[C@@H](Oc4cc(N5CCOCC5)cc5nccnc45)CC3)ncn2)CC1` [Compound 562]: the inhibition constant (Ki) is less than 100 nM.

`c1cc(C2CC2)nc(N[C@H]2CC[C@@H](Oc3cc(N4CCOCC4)cc4nccnc34)CC2)n1` [Compound 455]: the Ki was less than 100 nM.

As to `Fc1cncnc1N[C@H]1CC[C@@H](Oc2cc(N3CCOCC3)cc3nccnc23)CC1` [Compound 531], the Ki was less than 100 nM.

`Cc1csc(N[C@H]2CC[C@@H](Oc3cc(N4CCOCC4)cc4nccnc34)CC2)n1` [Compound 284]: the inhibition constant Ki is less than 100 nM.

Consider `NC(=O)c1cnc2cc(N3CCOCC3)cc(O[C@H]3CC[C@@H](Nc4ncccn4)CC3)c2n1` [Compound 606], for which the inhibition constant (Ki) was less than 100 nM.

Regarding `Cc1nc(N[C@H]2CC[C@@H](Oc3cc(N4CCOCC4)cc4nccnc34)CC2)c2occc2n1` [Compound 435], the Ki is less than 100 nM.

Take `CNc1nc(N[C@H]2CC[C@@H](Oc3cc(N4CCOCC4)cc4nccnc34)CC2)ncc1F` [Compound 482]: the Ki was less than 100 nM.

`Cc1ncncc1N[C@H]1CC[C@@H](Oc2cc(N3CCOCC3)cc3nccnc23)CC1` [Compound 448]: the Ki is less than 100 nM.

In the case of `O=c1cc(N[C@H]2CC[C@@H](Oc3cc(N4CCOCC4)cc4nccnc34)CC2)cc[nH]1` [Compound 325], the inhibition constant Ki is less than 100 nM.

Regarding `c1cc(C2CCNCC2)nc(N[C@H]2CC[C@@H](Oc3cc(N4CCOCC4)cc4nccnc34)CC2)n1` [Compound 551], the Ki was less than 100 nM.

As for `c1cnc2c(O[C@H]3C[C@@H](Nc4ncc5c(n4)COC5)C3)cc(N3CCOCC3)cc2n1` [Compound 355], the Ki is less than 100 nM.

Regarding `c1cnc2c(O[C@H]3CC[C@@H](Nc4ncc(OCCN5CCOCC5)cn4)CC3)cc(N3CCOCC3)cc2n1` [Compound 585], the inhibitory constant (Ki) was less than 100 nM.

Take `CN(C)c1cc(N[C@H]2CC[C@@H](Oc3cc(N4CCOCC4)cc4nccnc34)CC2)ncn1` [Compound 603]: the Ki is less than 100 nM.

With `COc1cnc(Cl)nc1N[C@H]1CC[C@@H](Oc2cc(N3CCOCC3)cc3nccnc23)CC1` [Compound 401], the inhibition constant (Ki) is less than 100 nM.

`CCCc1nc(C)cc(N[C@H]2CC[C@@H](Oc3cc(N4CCOCC4)cc4nccnc34)CC2)n1` [Compound 618]: the inhibitory constant (Ki) is less than 100 nM.

In the case of `CN1CCN(c2cc(N[C@H]3CC[C@@H](Oc4cc(N5CCOCC5)cc5nccnc45)CC3)ncn2)CC1` [Compound 537], the Ki was less than 100 nM.

As for `Cc1nccc(N[C@H]2CC[C@@H](Oc3cc(N4CCO[C@H](C)C4)cc4nccnc34)CC2)n1` [Compound 290], the inhibition constant (Ki) is less than 100 nM.

Take `Cc1ncc(N[C@H]2CC[C@@H](Oc3cc(N4CCOCC4)cc4nccnc34)CC2)c(C)n1` [Compound 449]: the inhibition constant Ki was less than 100 nM.

On to `c1cc2c(c(N[C@H]3CC[C@@H](Oc4cc(N5CCOCC5)cc5nccnc45)CC3)c1)OCC2` [Compound 338], for which the Ki is less than 100 nM.

For the molecule `CN1CCN(CCCOc2cnc(N[C@H]3CC[C@@H](Oc4cc(N5CCOCC5)cc5nccnc45)CC3)nc2)CC1` [Compound 508], the Ki is less than 100 nM.

Regarding `CC(C)c1ccnc(N[C@H]2CC[C@@H](Oc3cc(N4CCOCC4)cc4nccnc34)CC2)n1` [Compound 634], the Ki was less than 100 nM.

For the molecule `c1nc2c(c(N[C@H]3CC[C@@H](Oc4cc(N5CCOCC5)cc5nccnc45)CC3)n1)CCC2` [Compound 487], the Ki is less than 100 nM.

Consider `CN(C)CCc1cnc(N[C@H]2CC[C@@H](Oc3cc(N4CCOCC4)cc4nccnc34)CC2)nc1` [Compound 431], for which the inhibition constant Ki was less than 100 nM.

For `Cc1cnc(N[C@H]2CC[C@@H](Oc3cc(N4CCOCC4)cc4nccnc34)CC2)c(C)c1` [Compound 595], the Ki is less than 100 nM.

In the case of `FC(F)(F)c1cnc(N[C@H]2CC[C@@H](Oc3cc(N4CCOCC4)cc4nccnc34)CC2)cn1` [Compound 366], the Ki is less than 100 nM.

For the molecule `OCc1cccnc1N[C@H]1CC[C@@H](Oc2cc(N3CCOCC3)cc3nccnc23)CC1` [Compound 584], the inhibitory constant (Ki) is less than 100 nM.

Turning to `Fc1c(N[C@H]2CC[C@@H](Oc3cc(N4CCOCC4)cc4nccnc34)CC2)ncnc1N1CCOCC1` [Compound 511], the Ki was less than 100 nM.
